The test system of one experiment is HSV-1. Description: In vivo model of HSV-1 lip infection (herpes simplex labialis) in mice. As to conditions: BALB/c mice infected on the lower lip; applied every 4 hours for first 12 hours, then every 8 hours for 5 days; FIGS. 13A-13B. How it is done:
KU-55933 and Chk2 Inhibitor II were also efficacious at reducing HSV-1 in an in vivo model of infection (FIGS. 13A-13B). BALB/c mice were infected with HSV-1 on the lower lip, and KU-55933 or Chk2 Inhibitor II was applied every 4 hours for the first 12 hours post infection followed by treatments every 8 hours for the next 5 days. The mice were scored based on the severity of the symptoms, and tracked over the course of infection.

For experiment [1], the system named is HSV-1 strain KOS. Description: HSV-1 replication in OKF6 cells (qPCR genome copy number and viral yield). In kind it is cell-based. As to conditions: for HSV-1 replication over time course of lytic infection (genome copy number, viral yield): MOI=0.1, FIGS. 8A-8B; for HSV-1 replication as measured by qPCR and viral yield, dose dependence: MOI=0.1, analysis at 20 hours post infection, FIGS. 7A-7C; for effect on reducing HSV-1 replication when combined with acyclovir: low dose of inhibitor combined with low doses of acyclovir, MOI=0.1, FIGS. 11A-11B. The protocol: (§1) All cells were cultured at 37° C. and 5% CO2 and supplemented with 100 U/mL penicillin and 100 U/mL streptomycin. OKF6/TERT2 human oral mucosal keratinocyte cells were cultured in GIBCO Keratinocyte serum free medium (K-sfm) supplemented with bovine pituitary extract, epidermal growth factor, and calcium chloride (Life Technologies Carlsbad, Calif.). These cells are immortalized by expression of hTERT (Dickson, et al., 2000, Mol. Cell. Biol. 20(4):1436-1447). EPC2 human esophageal epithelial cells were cultured in K-sfm (Carlsbad, Calif.). KOS strain (Smith, Proc. Soc. Exp. Biol. Med. Soc. Exp. Biol. Med. 115:814-816) of HSV-1 was used in all infections. All viral stocks were titered on CV-1 monolayers.
(§2) Subconfluent monolayers of cells were grown in six-well plates. Drug treatments were administered 60 minutes prior to infection and continued for the entire duration of each experiment. Infections with KOS strain of HSV-1 were carried out in six-well plates in a 200 μL inoculum volume at 37° C. for 1 hour with intermittent rocking. The cells were then rinsed and overlaid with fresh medium.
(§3) Unless indicated otherwise, KU-55933 (Batch No. 5, 99.7% purity; Tocris Bioscience, Bristol, UK) and Chk2 Inhibitor II (Sigma-Aldrich, St. Louis, Mo.) were used at 10 μM final concentration, phosphonoacetic acid (PAA) at 400 μg/mL (Sigma-Aldrich, St. Louis, Mo.), and acyclovir at 50 μg/mL (Sigma-Aldrich). KU-55933 and Chk2 Inhibitor II were dissolved in dimethyl sulfoxide (DMSO), and the final concentration of DMSO for KU-55933, Chk2 Inhibitor II, and mock treatments for all in vitro experiments was 0.1%.
(§4) Viral genome replication and transcription were measured by quantitative PCR (qPCR). Total DNA and RNA from infected cells were isolated using the DNeasy Blood & Tissue Kit and the RNeasy Mini Kit, respectively (QIAGEN, Hilden, Germany). RNA was converted to cDNA using qScript (Quanta BioSciences, Gaithersburg, Md.). Real-time qPCR was performed with SYBR Green (Bio-Rad, Hercules, Calif.). Target primers for UL30 (DNA polymerase catalytic subunit) and reference primers for glyceraldehyde 3-phosphate dehydrogenase (GAPDH) were used to measure genome replication. Transcription of the three gene families was measured with primers for RL2 (ICP0), UL30 (DNA polymerase catalytic subunit), UL23 (thymidine kinase), and UL44 (gC), with reference primers for the 18S ribosomal RNA (rRNA).
On the technique in general: Quantitative PCR measures a nucleic acid by following its amplification.

Experiment [2] relates to HSV-1 strain KOS. The experiment can be described thus: Transcription of HSV-1 genes in infected OKF6 cells (qPCR). The format is cell-based. The settings on record: for effect on viral early factor thymidine kinase: MOI=0.1, FIGS. 9C-9E; for transcription of true-late gene gC: qPCR, MOI=0.1, FIG. 9E. The protocol:
as §1, §2, §3, §4

The subject of experiment [3] is acyclovir-resistant strain of HSV-1, dlspTK. Description: Replication of acyclovir-resistant HSV-1 in OKF6 cells. In kind it is cell-based. The settings on record: MOI=0.1, FIGS. 12A-12B.
For experiment [4], the system named is HSV-1 strain KOS. The experiment can be described thus: Protein synthesis of HSV-1 factors in infected OKF6 cells (Western blot). In kind it is cell-based. As to conditions: for protein synthesis of HSV-1 early gene ICP8 / protein synthesis of HSV-1 immediate early gene ICP0 / protein synthesis of HSV-1 leaky-late gene gB / protein synthesis of HSV-1 true-late gene gC: MOI=5, FIGS. 9A-9B; for gC level, inhibitor applied before infection or up to 1 hour post infection / gC level, inhibitor applied between 2 to 3 hours post infection: MOI=5, FIGS. 10A-10B; for gC level, inhibitor applied 4 hours post infection: MOI=5, compared to wild type infection, FIGS. 10A-10B. The protocol:
as §1
Subconfluent monolayers of cells were grown in six-well plates. […] Infections with KOS strain of HSV-1 were carried out in six-well plates in a 200 μL inoculum volume at 37° C. for 1 hour with intermittent rocking. The cells were then rinsed and overlaid with fresh medium.
as §3
Standard protocol was followed for Western blot analysis. Cell lysates were collected in 200 μL Laemmli buffer, vortexed, and boiled at 95° C. for 5 minutes. Protein concentrations were measured by bicinchoninic acid (BCA) assay. SDS-PAGE was followed by transfer onto a polyvinylidene difluoride (PVDF) membrane, which was then blocked in 5% BSA. Primary antibodies against the following proteins were used: ICP0 (mouse monoclonal; Virusys Corporation, Taneytown, Md.), ICP4 and nucleolin (both mouse monoclonal; Santa Cruz Biotechnology, Santa Cruz, Calif.), ICP8 (rabbit polyclonal), glycoprotein B and C (mouse monoclonal and rabbit polyclonal, respectively), ATM and pATM S1981 (rabbit polyclonal and mouse monoclonal, respectively; Rockland), Chk2 and pChk2 T68 (rabbit polyclonal and mouse monoclonal, respectively; Cell Signaling). Blots were stained with secondary antibodies and visualized with the Odyssey near-infrared system (LI-COR, Lincoln, Nebr.).

Another experiment concerns ATM. The experiment can be described thus: ATM activation in HSV-1-infected OKF6 cells (Western blot). In kind it is cell-based, human. The settings on record: MOI=5.0, FIG. 6. A general note: Immunoblotting shows a protein as a band on a membrane.

The record followed here is patent US10071098B2, “Compositions useful for treating herpes simplex labialis and/or herpes esophagitis, and methods using same” (DREXEL UNIVERSITY, priority 2014, dated 2018).

Description for ATM: All cells were cultured at 37° C. and 5% CO2 and supplemented with 100 U/mL penicillin and 100 U/mL streptomycin. OKF6/TERT2 human oral mucosal keratinocyte cells were cultured in GIBCO Keratinocyte serum free medium (K-sfm) supplemented with bovine pituitary extract, epidermal growth factor, and calcium chloride (Life Technologies Carlsbad, Calif.). […] KOS strain (Smith, Proc. Soc. Exp. Biol. Med. Soc. Exp. Biol. Med. 115:814-816) of HSV-1 was used in all infections. All viral stocks were titered on CV-1 monolayers.
Unless indicated otherwise, KU-55933 (Batch No. 5, 99.7% purity; Tocris Bioscience, Bristol, UK) and Chk2 Inhibitor II (Sigma-Aldrich, St. Louis, Mo.) were used at 10 μM final concentration, phosphonoacetic acid (PAA) at 400 μg/mL (Sigma-Aldrich, St. Louis, Mo.), and acyclovir at 50 μg/mL (Sigma-Aldrich). […]
Standard protocol was followed for Western blot analysis. […] Protein concentrations were measured by bicinchoninic acid (BCA) assay. […]

Consider `NC(=O)c1ccc2[nH]c(-c3ccc(Oc4ccc(Cl)cc4)cc3)nc2c1` [Chk2 Inhibitor II, 2-(4-(4-chlorophenoxy)phenyl)-1H-benzimidazole-5-carboxamide], for which the “severity of symptoms (score) during the time course of infection” value in the experiment on HSV-1 was “statistically significant decrease in the severity of symptoms”. Moreover, in the experiment on HSV-1 strain KOS [1], the “HSV-1 replication over time course of lytic infection (genome copy number, viral yield)” value is “reduced HSV-1 replication throughout the entire time course of lytic infection”; the “HSV-1 replication as measured by qPCR and viral yield, dose dependence” value was “reduced HSV-1 replication in a dose dependent manner”; the “effect on reducing HSV-1 replication when combined with acyclovir” value is “additive to greater-than-additive effect”. Moreover, in the experiment on HSV-1 strain KOS [2], the “effect on viral early factor thymidine kinase” value is “minimal effect” and the “transcription of true-late gene gC” value was “prevent the transcription”. In addition, the “replication (genome copy numbers) of acyclovir-resistant HSV-1 strain dlspTK” value in experiment [3] is recorded as “greatly reduced replication”. Also, in the experiment with HSV-1 strain KOS [4], the “protein synthesis of HSV-1 early gene ICP8” value is “no impact”, the “protein synthesis of HSV-1 immediate early gene ICP0” value is given as “no impact”, the “protein synthesis of HSV-1 leaky-late gene gB” value was “no impact” and the “protein synthesis of HSV-1 true-late gene gC” value is on record as “large reduction”. In addition, in the experiment with HSV-1 strain KOS [4], the “gC level, inhibitor applied before infection or up to 1 hour post infection” value is “large reduction of gC”; the “gC level, inhibitor applied between 2 to 3 hours post infection” value is “Low levels of gC were produced”; the “gC level, inhibitor applied 4 hours post infection” value is “no impact on gC levels”.
As for `O=c1cc(-c2cccc3c2Sc2ccccc2S3)oc(N2CCOCC2)c1` [KU-55933, 2-(morpholin-4-yl)-6-(thianthren-1-yl)-pyran-4-one], the “severity of symptoms (score) during the time course of infection” value with HSV-1 is listed as “statistically significant decrease in the severity of symptoms”. Also, in the experiment on HSV-1 strain KOS [1], the “HSV-1 replication over time course of lytic infection (genome copy number, viral yield)” value was “reduced HSV-1 replication throughout the entire time course of lytic infection”; the “HSV-1 replication as measured by qPCR and viral yield, dose dependence” value was “reduced HSV-1 replication in a dose dependent manner”; the “effect on reducing HSV-1 replication when combined with acyclovir” value is reported as “additive to greater-than-additive effect”. In the experiment with HSV-1 strain KOS [2], the “effect on viral early factor thymidine kinase” value is recorded as “minimal effect” and the “transcription of true-late gene gC” value is recorded as “reduction”. The “replication (genome copy numbers) of acyclovir-resistant HSV-1 strain dlspTK” value in experiment [3] is “greatly reduced replication”. For the same molecule, in the experiment with HSV-1 strain KOS [4], the “protein synthesis of HSV-1 early gene ICP8” value was “no impact”, the “protein synthesis of HSV-1 immediate early gene ICP0” value was “no impact”, the “protein synthesis of HSV-1 leaky-late gene gB” value is reported as “no impact” and the “protein synthesis of HSV-1 true-late gene gC” value was “large reduction”. Further, in the experiment on HSV-1 strain KOS [4], the “gC level, inhibitor applied before infection or up to 1 hour post infection” value is given as “large reduction of gC”; the “gC level, inhibitor applied between 2 to 3 hours post infection” value is reported as “Low levels of gC were produced”; the “gC level, inhibitor applied 4 hours post infection” value is “no impact on gC levels”. In addition, the ATM activation entry in the experiment with ATM is “inhibited ATM activation”.
